According to US9115367B2, “Stomata-increasing agent, polypeptide, method for increasing number and/or density of stomata in plant, and method for increasing yield of plant” (KYOTO UNIVERSITY, priority 2009, dated 2015):
Where no end group is shown, it is not given here.

Columns and labels:
[1] = system: Arabidopsis thaliana {Lti6b-GFP line}; experiment: Administration of purified recombinant stomagen to germinated seedlings (Example 4); assay type: in vivo
Method: Seeds of Arabidopsis thaliana {Lti6b-GFP line} were maintained in a B5 sterilized medium {manufactured by NIHON PHARMACEUTICAL CO., LTD, catalogue number: 399-00621} for germination. To the Lti6b-GFP line at 2 days after germination was administered the purified recombinant stomagen obtained in Example 2, so as to have a concentration of 2 μM. Thereafter, the Lti6b-GFP line was grown for 3 days at 22° C. The abaxial epidermis of the cotyledons was observed under a confocal microscope. The same operation was carried out as described above, using as a control an Lti6b-GFP line to which stomagen was not administered. The abaxial epidermis of the cotyledons was observed. A confocal microscopic image of abaxial epidermis of the cotyledon of the Lti6b-GFP-expressing line to which the purified recombinant stomagen was not administered in Example 4 is shown in FIG. 26 (a) and a confocal microscopic image of abaxial epidermis of the cotyledon of the Lti6b-GFP-expressing line to which the purified recombinant stomagen (2 μM) was administered in Example 4 is shown in FIG. 26 (b). In the figures, a scale bar represents 50 μm.

[2] = system: spch mutant; experiment: Administration of purified recombinant stomagen to spch mutant (Test Example 9); assay type: in vivo, Arabidopsis thaliana; conditions: 2 μM administered to spch mutant at 2 days after germination, grown 3 days; abaxial epidermis of cotyledon
Method: The seeds of the spch mutant or the seeds of Arabidopsis thaliana Col-0 line (stock number: CS60000) {wild-type strain} were maintained in a B5 sterilized medium for germination. To the spch mutant or the wild-type strain at 2 days after germination was administered the purified recombinant stomagen obtained in Example 2, so as to have a concentration of 2 μM. Thereafter, the spch mutant or the wild-type strain was grown at 22° C. for 3 days. The abaxial epidermis of the cotyledon was observed under a confocal microscope {manufactured by Zeiss, trade name: LSM510 META microscope}. The abaxial epidermis of the cotyledons was observed by carrying out the same operation was carried out as described above with the use of a spch mutant line to which stomagen was not administered as a control. A confocal microscopic image of abaxial epidermis of the cotyledon of the spch mutant to which purified recombinant stomagen was not administered in Test Example 9 is shown in FIG. 28 (a), a confocal microscopic image of abaxial epidermis of the cotyledon of the spch mutant to which purified recombinant stomagen (2 μM) was administered in Test Example 9 is shown in FIG. 28 (b), and a confocal microscopic image of abaxial epidermis of the cotyledon of the wild-type strain to which purified recombinant stomagen (2 μM) was administered in Test Example 9 is shown in FIG. 28 (c).

[3] = system: soybean (Kariyutaka); experiment: Addition of synthetic stomagen to soybean shoot apex (Example 8); assay type: in vivo; conditions: 1 μM, 10 μM or 100 μM added to shoot apex at second leaf stage, grown for a week
Method: The seeds of soybean (Kariyutaka) were seeded to a pot containing potting compost, germinated and then grown until the second leaf stage. Then, the synthetic stomagen obtained in Example 5 was added to the shoot apex, so as to have a concentration of 1 μM, 10 μM or 100 μM. Thereafter, the resulting plant was grown for a week and observed under a differential interference microscope {manufactured by Zeiss, trade name: Axioskop plus microscope}, to determine the number of stomata in a square area of 0.22 mm^2. Then, stomatal density was calculated. Here, statistical analysis was conducted using R statistical analysis software. […] In the figure, an open triangle, an open square and an open circle each show a different plant.

[4] = system: Arabidopsis thaliana Col-0 line; experiment: Heat and lyophilization treatment of stomagen, then stomatal density test (Test Example 16); assay type: in vivo; conditions: 60° C. for 5 minutes, 90° C. for 5 minutes or lyophilized; administered at 3 μM, cotyledon
Method: The chemically synthesized stomagen obtained in Example 5 was incubated at 60° C. for 5 minutes (sample number 3) or at 90° C. for 5 minutes (sample number 4). In addition, the chemically synthesized stomagen obtained in Example 5 was lyophilized (sample number 5).
The seeds of Arabidopsis thaliana Col-0 line (stock number: CS60000) were maintained and germinated in a B5 sterilized medium. To the Arabidopsis thaliana Col-0 line (stock number: CS60000) at 2 days after germination was administered the untreated stomagen (sample number 2), the stomagen incubated at 60° C. for 5 minutes (sample number 3), the stomagen incubated at 90° C. for 5 minutes (sample number 4), or the lyophilized stomagen (sample number 5), so as to have a concentration of 3 μM.
Thereafter, the Arabidopsis thaliana Col-0 line (stock number: CS60000) was grown at 22° C. for 3 days. Next, the cotyledon was collected, and the surface of the cotyledon was observed under a confocal microscope {manufactured by Zeiss, trade name: LSM510 META microscope}, to determine the number of stomata in a square area of 0.22 mm^2. Then, stomatal density was calculated. […] Stomatal density was calculated by carrying out the same operation as described above with the use of Arabidopsis thaliana Col-0 line (stock number: CS60000) to which stomagen was not administered as a control (sample number 1). […]

[5] = system: Arabidopsis thaliana {Lti6b-GFP line}; experiment: Administration of synthetic stomagen to germinated seedlings (Example 6); assay type: in vivo
Method: The seeds of Arabidopsis thaliana {Lti6b-GFP line} were maintained in a B5 sterilized medium for germination. To the Lti6b-GFP line at 2 days after germination was administered the synthetic stomagen obtained in Example 5, so as to have a concentration of 300 nM. Thereafter, the Lti6b-GFP line was grown for 3 days at 22° C. Next, the cotyledon was collected. The surface was observed under a confocal microscope {manufactured by Zeiss, trade name: LSM510 META microscope}, to determine the number of stomata in a square area of 0.22 mm^2. Then, stomatal density was calculated. Here, statistical analysis was conducted by using R statistical analysis software. In addition, stomatal density was calculated by carrying out the same operation as described above with the use of an Lti6b-GFP line to which stomagen was not administered as a control. The result of examining the relationship between the amount of synthesized stomagen and stomatal density in Example 6 is shown in FIG. 27.

[6] = system: rice {strain “Nipponbare”}; experiment: Administration of synthetic stomagen to rice seeds (Test Example 14); assay type: in vivo; conditions: 200 μL of 80 μM stomagen added to 5 mL water at seeding; abaxial epidermis of second leaf at 32 days after seeding; vs not administered
Method: The seeds of rice {strain “Nipponbare”} were seeded to a container {50-mL volume, manufactured by greiner} with 5 mL of desalted water, and thereafter 200 μL of 80 μM stomagen (the synthetic stomagen obtained in Example 5) was added thereto. Then, the seeds were maintained at 22° C. for 8 days. Thereafter, the resulting plant was grown at 22° C. in a B5 sterilized medium. The second leaves of rice at 32 days after seeding were collected. Then, the second leaves were fixed and made transparent, and then stomata were stained by carrying out the same operation as in Test Example 1. Thereafter, the abaxial epidermis of the second leaves was observed under a differential interference microscope {manufactured by Zeiss, trade name: Axioskop plus microscope}. The abaxial epidermis of the second leaves of the rice at 32 days after seeding was observed by carrying out the same procedure as in the above with the use of a rice to which stomagen was not administered as a control. A differential interference image of abaxial epidermis of the second leaf of the rice to which synthesized stomagen was administered in Test Example 14 is shown in FIG. 39 (a) and a differential interference image of abaxial epidermis of the second leaf of the rice to which synthesized stomagen was not administered in Test Example 14 is shown in FIG. 39 (b). In the figures, a framed part represents a stoma. […]

[7] = 2 μM at 2 days after germination, grown 3 days at 22° C., abaxial epidermis of cotyledon, vs not administered

purified recombinant stomagen: stomagen expressed in tobacco-cultured BY-2 cells and purified from culture supernatant by reversed-phase HPLC (IGSTAPTCTYNECRGCRYKCRAEQVPVEGNDPINSAYHYRCVCHR; Stomagen; UniProt Q9SV72 58-102, looked up)
number of stomata [1, 7]: increased
stomatal density [1, 7]: increased
stomatal density, concentration dependence ([1]; recombinant stomagen expressed in BY-2 cells): concentration-dependently increase

stomagen: polypeptide comprising the amino acid sequence shown in SEQ ID NO: 6; 45-amino-acid peptide having six cysteine residues (IGSTAPTCTYNECRGCRYKCRAEQVPVEGNDPINSAYHYRCVCHR; listed as Arabidopsis thaliana)
stomata [2]: do not increase
relationship between stomagen concentration and stomatal density [3]: positive correlation
stability to heat and drying (stomatal density after treatment) [4]: stable to heat and drying

synthetic stomagen: chemically synthesized polypeptide (45 amino acids) comprising 58th to 102nd amino acid residues of SEQ ID NO: 1, refolded by dialysis (IGSTAPTCTYNECRGCRYKCRAEQVPVEGNDPINSAYHYRCVCHR; also: refolded by dialysis, disulfide pairing not given here; listed as Arabidopsis thaliana)
stomatal density ([5]; 300 nM at 2 days after germination, grown 3 days at 22° C., abaxial epidermis of cotyledon, vs not administered): increases
stomatal density, concentration dependence ([5]; chemically synthesized stomagen): concentration-dependently increase
number of stomata [6]: increase
stomatal density [6]: increase
